Key:
sedge, umbrella = assay: Test B flooded paddy test; format: in vivo, Cyperus difformis; details: Flood, 250 g ai/ha, 0 to 100 scale where 0 is no effect and 100 is complete control
Method in brief: (§1)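 Scores from 0 (no effect) to 100 (complete control) are visual comparisons with controls, taken 13 to 15 days after compound was applied into floodwater 3 cm deep around 2-leaf plants.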

soybean = assay: Test C postemergence; format: in vivo, Glycine max
Method in brief: (§2)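 Injury was assessed visually against controls 13 to 15 days after application, with 0 meaning no effect and 100 full control; missing entries are shown as a dash. Preemergence sprays hit seeded loam–sand soil, postemergence sprays hit 1- to 4-leaf plants.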

corn = assay: Test C preemergence; format: in vivo, Zea mays
Method in brief: as §2

velvetleaf = assay: Test C postemergence; format: in vivo, Abutilon theophrasti
Method in brief: as §2

barnyardgrass [1] = assay: Test C preemergence; format: in vivo, Echinochloa crus-galli
Method in brief: as §2

oilseed rape [2] = assay: Test C preemergence; format: in vivo, Brassica napus; details: preemergence
Method in brief: as §2

barnyardgrass [3] = assay: Test C postemergence; format: in vivo, Echinochloa crus-galli
Method in brief: as §2

oilseed rape [4] = assay: Test C postemergence; format: in vivo, Brassica napus
Method in brief: as §2

giant foxtail = assay: Test C preemergence; format: in vivo, Setaria faberii
Method in brief: as §2

large (Lg) crabgrass = assay: Test C postemergence; format: in vivo, Digitaria sanguinalis
Method in brief: as §2

barnyardgrass [5] = assay: Test B flooded paddy test; format: in vivo, Echinochloa crus-galli; details: Flood, 250 g ai/ha, 0 to 100 scale where 0 is no effect and 100 is complete control
Method in brief: as §1

waterhemp = assay: Test C postemergence; format: in vivo, Amaranthus rudis
Method in brief: as §2

[6] = 16 g ai/ha, postemergence, 0 is no effect, 100 is complete control
[7] = 31 g ai/ha, postemergence, visual rating, scale 0 to 100 (0 no effect, 100 complete control), 13 to 15 days
[8] = 125 g ai/ha, postemergence, visual rating, scale 0 to 100 (0 no effect, 100 complete control)
[9] = Postemergence, 62 g ai/ha, scale 0 to 100 (0 no effect, 100 complete control)
[10] = 16 g ai/ha, preemergence, scale 0 to 100 (0 no effect, 100 complete control)
[11] = 62 g ai/ha, preemergence, scale 0 (no effect) to 100 (complete control)
[12] = 125 g ai/ha, preemergence, scale 0 (no effect) to 100 (complete control)
[13] = Preemergence, 31 g ai/ha, scale 0 to 100, 0 no effect, 100 complete control

## FC(F)(F)COc1cnn(-c2ccccc2Oc2ncc(Cl)cn2)c1 [Compound 138, 5-chloro-2-[2-[4-(2,2,2-trifluoroethoxy)-1H-pyrazol-1-yl]phenoxy]pyrimidine]
sedge, umbrella; Cyperus difformis, read-out: Plant response rating, Sedge, Umbrella
  pest or weed control at 250 g/ha: 75%
soybean; Glycine max, post-emergence, 16 g ai/ha, postemergence, 0 is no effect, 100 is complete control
  Soybean plant response rating (crop injury, 0-100 scale) at 16 g/ha: 40%
soybean; Glycine max, post-emergence, 125 g ai/ha, postemergence, visual rating, scale 0 to 100 (0 no effect, 100 complete control), read-out: Plant response rating, Soybean
  Soybean plant response rating (crop injury, 0-100 scale) at 125 g/ha: 95%
soybean; Glycine max, post-emergence, Postemergence, 62 g ai/ha, scale 0 to 100 (0 no effect, 100 complete control)
  Soybean plant response rating (crop injury, 0-100 scale) at 62 g/ha: 65%
corn; Zea mays, pre-emergence, 16 g ai/ha, preemergence, scale 0 to 100 (0 no effect, 100 complete control), read-out: Corn plant response rating
  plant injury at 16 g/ha: 0%
corn; Zea mays, pre-emergence, 62 g ai/ha, preemergence, scale 0 (no effect) to 100 (complete control), read-out: Corn plant response rating
  plant injury at 62 g/ha: 0%
corn; Zea mays, pre-emergence, 125 g ai/ha, preemergence, scale 0 (no effect) to 100 (complete control), read-out: Corn plant response rating
  plant injury at 125 g/ha: 25%
corn; Zea mays, pre-emergence, Preemergence, 31 g ai/ha, scale 0 to 100, 0 no effect, 100 complete control
  Corn plant response rating (crop injury, 0 = no effect, 100 = complete kill) at 31 g/ha: 0%
velvetleaf; Abutilon theophrasti, post-emergence, 16 g ai/ha, postemergence, 0 is no effect, 100 is complete control, read-out: Plant response rating (0 to 100), Velvetleaf
  pest or weed control at 16 g/ha: 30%
velvetleaf; Abutilon theophrasti, post-emergence, 125 g ai/ha, postemergence, visual rating, scale 0 to 100 (0 no effect, 100 complete control), read-out: Plant response rating, Velvetleaf
  pest or weed control at 125 g/ha: 55%
velvetleaf; Abutilon theophrasti, post-emergence, Postemergence, 62 g ai/ha, scale 0 to 100 (0 no effect, 100 complete control), read-out: Plant response rating, Velvetleaf
  pest or weed control at 62 g/ha: 20%
Barnyardgrass [1]; Echinochloa crus-galli, pre-emergence, 16 g ai/ha, preemergence, scale 0 to 100 (0 no effect, 100 complete control), read-out: Barnyardgrass plant response rating
  pest or weed control at 16 g/ha: 10%
Barnyardgrass [1]; Echinochloa crus-galli, pre-emergence, 62 g ai/ha, preemergence, scale 0 (no effect) to 100 (complete control), read-out: Barnyardgrass plant response rating
  pest or weed control at 62 g/ha: 65%
Barnyardgrass [1]; Echinochloa crus-galli, pre-emergence, 125 g ai/ha, preemergence, scale 0 (no effect) to 100 (complete control), read-out: Barnyardgrass plant response rating
  pest or weed control at 125 g/ha: 95%
Barnyardgrass [1]; Echinochloa crus-galli, pre-emergence, Preemergence, 31 g ai/ha, scale 0 to 100, 0 no effect, 100 complete control, read-out: Plant response rating, Barnyardgrass
  pest or weed control at 31 g/ha: 25%
Oilseed rape [2]; Brassica napus, pre-emergence, 16 g ai/ha, scale 0 to 100 (0 no effect, 100 complete control), read-out: Oilseed Rape plant response rating
  plant injury at 16 g/ha: 80%
Oilseed rape [2]; Brassica napus, pre-emergence, 62 g ai/ha, scale 0 (no effect) to 100 (complete control), read-out: Oilseed Rape plant response rating
  plant injury at 62 g/ha: 100%
Oilseed rape [2]; Brassica napus, pre-emergence, 125 g ai/ha, scale 0 (no effect) to 100 (complete control), read-out: Oilseed Rape plant response rating
  plant injury at 125 g/ha: 100%
Barnyardgrass [3]; Echinochloa crus-galli, post-emergence, 16 g ai/ha, postemergence, 0 is no effect, 100 is complete control, read-out: Plant response rating (0 to 100), Barnyardgrass
  pest or weed control at 16 g/ha: 5%
Barnyardgrass [3]; Echinochloa crus-galli, post-emergence, 125 g ai/ha, postemergence, visual rating, scale 0 to 100 (0 no effect, 100 complete control), read-out: Plant response rating, Barnyardgrass
  pest or weed control at 125 g/ha: 5%
Barnyardgrass [3]; Echinochloa crus-galli, post-emergence, Postemergence, 31 g ai/ha, scale 0 to 100 (0 no effect, 100 complete control), 13 to 15 days, read-out: Plant response rating, Barnyardgrass
  pest or weed control at 31 g/ha: 5%
Barnyardgrass [3]; Echinochloa crus-galli, post-emergence, Postemergence, 62 g ai/ha, scale 0 to 100 (0 no effect, 100 complete control), read-out: Plant response rating, Barnyardgrass
  pest or weed control at 62 g/ha: 5%
Oilseed rape [4]; Brassica napus, post-emergence, 16 g ai/ha, postemergence, 0 is no effect, 100 is complete control, read-out: Plant response rating (0 to 100), Oilseed Rape
  plant injury at 16 g/ha: 5%
Oilseed rape [4]; Brassica napus, post-emergence, 125 g ai/ha, postemergence, visual rating, scale 0 to 100 (0 no effect, 100 complete control), read-out: Plant response rating, Oilseed Rape
  plant injury at 125 g/ha: 80%
Oilseed rape [4]; Brassica napus, post-emergence, Postemergence, 62 g ai/ha, scale 0 to 100 (0 no effect, 100 complete control), read-out: Plant response rating, Oilseed Rape
  plant injury at 62 g/ha: 60%
Giant foxtail; Setaria faberi, pre-emergence, 16 g ai/ha, preemergence, scale 0 to 100 (0 no effect, 100 complete control), read-out: Foxtail, Giant plant response rating
  pest or weed control at 16 g/ha: 30%
Giant foxtail; Setaria faberi, pre-emergence, 62 g ai/ha, preemergence, scale 0 (no effect) to 100 (complete control), read-out: Foxtail, Giant plant response rating
  pest or weed control at 62 g/ha: 100%
Giant foxtail; Setaria faberi, pre-emergence, 125 g ai/ha, preemergence, scale 0 (no effect) to 100 (complete control), read-out: Foxtail, Giant plant response rating
  pest or weed control at 125 g/ha: 100%
Giant foxtail; Setaria faberi, pre-emergence, Preemergence, 31 g ai/ha, scale 0 to 100, 0 no effect, 100 complete control, read-out: Plant response rating, Foxtail, Giant
  pest or weed control at 31 g/ha: 90%
Large (Lg) crabgrass; Digitaria sanguinalis, post-emergence, 16 g ai/ha, postemergence, 0 is no effect, 100 is complete control, read-out: Plant response rating (0 to 100), Crabgrass, Large
  pest or weed control at 16 g/ha: 10%
Large (Lg) crabgrass; Digitaria sanguinalis, post-emergence, 125 g ai/ha, postemergence, visual rating, scale 0 to 100 (0 no effect, 100 complete control), read-out: Plant response rating, Crabgrass, Large
  pest or weed control at 125 g/ha: 15%
Large (Lg) crabgrass; Digitaria sanguinalis, post-emergence, Postemergence, 62 g ai/ha, scale 0 to 100 (0 no effect, 100 complete control), read-out: Plant response rating, Crabgrass, Large
  pest or weed control at 62 g/ha: 15%
Barnyardgrass [5]; Echinochloa crus-galli, read-out: Plant response rating, Barnyardgrass
  pest or weed control at 250 g/ha: 0%
waterhemp; Amaranthus tuberculatus, post-emergence, 16 g ai/ha, postemergence, 0 is no effect, 100 is complete control, read-out: Plant response rating (0 to 100), Waterhemp
  pest or weed control at 16 g/ha: 60%
waterhemp; Amaranthus tuberculatus, post-emergence, 125 g ai/ha, postemergence, visual rating, scale 0 to 100 (0 no effect, 100 complete control), read-out: Plant response rating, Waterhemp
  pest or weed control at 125 g/ha: 85%
waterhemp; Amaranthus tuberculatus, post-emergence, Postemergence, 62 g ai/ha, scale 0 to 100 (0 no effect, 100 complete control), read-out: Plant response rating, Waterhemp
  pest or weed control at 62 g/ha: 75%

## CCCOc1cnn(-c2c(C#N)cccc2Oc2ncc(Cl)cn2)c1 [Compound 150]
sedge, umbrella
  Plant response rating, Sedge, Umbrella: 85
soybean; [6]
  Plant response rating (0 to 100), Soybean: 65
soybean; [7]
  Soybean plant response rating: 65
soybean; [8]
  Plant response rating, Soybean: 95
soybean; [9]
  Plant response rating, Soybean: 65
corn; [10]
  Corn plant response rating: 0
corn; [11]
  Corn plant response rating: 25
corn; [12]
  Corn plant response rating: 45
corn; [13]
  Plant response rating, Corn: 0
velvetleaf; [6]
  Plant response rating (0 to 100), Velvetleaf: 20
velvetleaf; [7]
  Velvetleaf plant response rating: 25
velvetleaf; [8]
  Plant response rating, Velvetleaf: 30
velvetleaf; [9]
  Plant response rating, Velvetleaf: 30
Barnyardgrass [1]; [10]
  Barnyardgrass plant response rating: 5
Barnyardgrass [1]; [11]
  Barnyardgrass plant response rating: 65
Barnyardgrass [1]; [12]
  Barnyardgrass plant response rating: 80
Barnyardgrass [1]; [13]
  Plant response rating, Barnyardgrass: 20
Oilseed rape [2]; 16 g ai/ha, scale 0 to 100 (0 no effect, 100 complete control)
  Oilseed Rape plant response rating: 0
Oilseed rape [2]; 62 g ai/ha, scale 0 (no effect) to 100 (complete control)
  Oilseed Rape plant response rating: 90
Oilseed rape [2]; 125 g ai/ha, scale 0 (no effect) to 100 (complete control)
  Oilseed Rape plant response rating: 100
Barnyardgrass [3]; [6]
  Plant response rating (0 to 100), Barnyardgrass: 5
Barnyardgrass [3]; [7]
  Barnyardgrass plant response rating: 5
Barnyardgrass [3]; [8]
  Plant response rating, Barnyardgrass: 5
Barnyardgrass [3]; [9]
  Plant response rating, Barnyardgrass: 5
Oilseed rape [4]; [6]
  Plant response rating (0 to 100), Oilseed Rape: 5
Oilseed rape [4]; [7]
  Oilseed Rape plant response rating: 40
Oilseed rape [4]; [8]
  Plant response rating, Oilseed Rape: 50
Oilseed rape [4]; [9]
  Plant response rating, Oilseed Rape: 45
Giant foxtail; [10]
  Foxtail, Giant plant response rating: 5
Giant foxtail; [11]
  Foxtail, Giant plant response rating: 100
Giant foxtail; [12]
  Foxtail, Giant plant response rating: 100
Giant foxtail; [13]
  Plant response rating, Foxtail, Giant: 75
Large (Lg) crabgrass; [6]
  Plant response rating (0 to 100), Crabgrass, Large: 5
Large (Lg) crabgrass; [7]
  Crabgrass, Large plant response rating: 5
Large (Lg) crabgrass; [8]
  Plant response rating, Crabgrass, Large: 10
Large (Lg) crabgrass; [9]
  Plant response rating, Crabgrass, Large: 5
Barnyardgrass [5]
  Plant response rating, Barnyardgrass: 0
waterhemp; [6]
  Plant response rating (0 to 100), Waterhemp: 35
waterhemp; [7]
  Waterhemp plant response rating: 35
waterhemp; [8]
  Plant response rating, Waterhemp: 65
waterhemp; [9]
  Plant response rating, Waterhemp: 35
